Assay results reported in patent US9034352B2, “Microbicide combinations containing silver” (Rohm and Haas Company, priority 2006, dated 2015).
Read-outs that look alike come from different tables or passages of the source.

Experiments:
Experiment in all cases: Synergy test, high resolution MIC microtiter plate assay
Format in all cases: cell-based
[1] = tested on: Samonella choleraesuis (S. choleraesuis—ATCC #10708); details: Salmonella enterica, read-out: MIC of component acting alone (end point)
From the text: (§1) One measure of synergism is the industrially accepted method described by Kull, F. C.; Eisman, P. C.; Sylwestrowicz, H. D. and Mayer, R. L., in Applied Microbiology 9:538-541 (1961), using the ratio determined by the formula: Ca/CA+Cb/CB=Synergy Index (“SI”) wherein:
(§2) CA=concentration of compound A (first component) in ppm, acting alone, which produced an end point (MIC of Compound A).
(§3) Ca=concentration of compound A in ppm, in the mixture, which produced an end point.
(§4) CB=concentration of compound B (second component) in ppm, acting alone, which produced an end point (MIC of Compound B).
(§5) Cb=concentration of compound B in ppm, in the mixture, which produced an end point.
(§6) When the sum of Ca/CA and Cb/CB is greater than one, antagonism is indicated. […] The lower the SI, the greater the synergy shown by that particular mixture. The minimum inhibitory concentration (MIC) of an antimicrobial compound is the lowest concentration tested under a specific set of conditions that prevents the growth of added microorganisms.
(§7) Synergy tests were conducted using standard microtiter plate assays with media designed for optimal growth of the test microorganism. Soybean Casein Digest Broth (Tryptic Soy Broth, TSB medium) or minimal salt medium supplemented with 0.2% glucose and 0.1% yeast extract (M9GY medium) was used for testing bacteria; Potato Dextrose Broth (PDB medium) was used for testing yeast and mold. In this method, a wide range of combinations of microbicides was tested by conducting high resolution MIC assays in the presence of various concentrations of the biocides. High resolution MICs were determined by adding varying amounts of microbicide to one column of a microtitre plate and doing subsequent ten-fold dilutions using an automated liquid handling system.
The synergy of the combinations of the present invention was determined against four bacteria, gram positive Staphylococcus aureus (S. aureus—ATCC #6538) and gram negative Pseudomonas aeruginosa (P. aeruginosa—ATCC #15442), Samonella choleraesuis (S. choleraesuis—ATCC #10708) and Esherichia coli (E. coli—ATCC #8739), a yeast, Candida albicans (C. albicans—ATCC 10231), and a mold, Aspergillus niger (A. niger—ATCC 16404). The bacteria were used at a concentration of about 1-6×10^6 bacteria per mL and the yeast and mold at 1-5×10^5 fungi per mL. These microorganisms are representative of natural contaminants in many consumer and industrial applications. […] (yeast and mold) or 30° C. (bacteria).
(§8) The end point values in the following examples for the silver-polymer complex are reported on an active silver ion basis.

[2] = tested on: Staphylococcus aureus (S. aureus—ATCC #6538); details: Staphylococcus aureus, ATCC6538, S. aureus, Ag-polymer on active silver ion basis, read-out: MIC of component acting alone (end point)
From the text: as §1, §2, §3, §4, §5, §6, §7
(§9) The bacteria were used at a concentration of about 1-6×10^6 bacteria per mL and the yeast and mold at 1-5×10^5 fungi per mL. These microorganisms are representative of natural contaminants in many consumer and industrial applications. […] (yeast and mold) or 30° C. (bacteria).

[3] = tested on: Aspergillus niger (A. niger—ATCC 16404); details: Aspergillus niger, A. niger, Ag-polymer on active silver ion basis, read-out: MIC of component acting alone (end point)
From the text: as §1, §2, §3, §4, §5, §6, §7, §9

[4] = tested on: Pseudomonas aeruginosa (P. aeruginosa—ATCC #15442); details: Pseudomonas aeruginosa, ATCC15442, P. aeruginosa, Ag-polymer on active silver ion basis, read-out: MIC of component acting alone (end point)
From the text: as §1, §2, §3, §4, §5, §6, §7, §9

[5] = tested on: Candida albicans (C. albicans—ATCC 10231); details: Candida albicans, ATCC10231, C. albicans, Ag-polymer on active silver ion basis, read-out: MIC of component acting alone (end point)
From the text: as §1, §2, §3, §4, §5, §6, §7
(§10) […]. The bacteria were used at a concentration of about 1-6×10^6 bacteria per mL and the yeast and mold at 1-5×10^5 fungi per mL. These microorganisms are representative of natural contaminants in many consumer and industrial applications. […] (yeast and mold) or 30° C. (bacteria).
as §8

[6] = tested on: Esherichia coli (E. coli—ATCC #8739); details: Escherichia coli, Ag-polymer on active silver ion basis, read-out: MIC of component acting alone (end point)
From the text: as §1, §2, §3, §4, §5, §6, §7, §10, §8

[7] = ATCC16404, 168 h, contact time 7 days

SMILES	MIC [1] [µg/mL]	MIC ([2]; contact time 24 hour) [µg/mL]	MIC ([2]; contact time 48 hour) [µg/mL]	MIC [3, 7] [µg/mL]	MIC ([4]; contact time 24 hour) [µg/mL]	MIC ([4]; contact time 48 hour) [µg/mL]	MIC ([5]; contact time 48 hour) [µg/mL]	MIC ([6]; ATCC8739, contact time 24 hour) [µg/mL]	MIC ([6]; ATCC8739, contact time 48 hour) [µg/mL]	MIC ([1]; S. choleraesuis, contact time 24 hour, Ag-polymer on active silver ion basis) [µg/mL]	MIC ([1]; S. choleraesuis, contact time 48 hour, Ag-polymer on active silver ion basis) [µg/mL]	MIC ([3]; ATCC16404, 72 h, contact time 3 days) [µg/mL]	MIC ([5]; contact time 24 hour) [µg/mL]
CCCCCCCCn1sc(Cl)c(Cl)c1=O [DCOIT, 4,5-dichloro-2-n-octyl-4-isothiazolin-3-one, reference compound]	1.5	0.29	0.29	2	1.5	2.9	0.15	0.29	0.43				
CCCCCCCCn1sccc1=O [OIT, 2-n-octyl-4-isothiazolin-3-one, reference compound]		72.8	72.8	5.76	444		0.99	294	294	361	361	3.9	0.81
